Where “and” joins values, the source holds several entries; their conditions need not be identical. Equal values may be shown once.

In one experiment the target is T1, human HERG K+ channel (Homo sapiens, UniProt Q12809).
T1 construct: expressed in transfected cells; host or cells: HEK-293
The experiment in a line: HERG Assay, [3H]astemizole radioligand binding. The conditions noted are these: transfected HEK-293 cell membranes, 2 nM [3H]astemizole. How it is done:
Evaluation of the affinity of compounds for the human HERG K^+ channel in transfected HEK-293 cells is determined in a radioligand binding assay. Cell membrane homogenates (40 μg protein) are incubated for 75 min at 22° C. with 2 nM [^3H]astemizole in the absence or presence of the test compound in a buffer containing 50 mM Tris-HCl (pH 7.4), 10 mM KCl, 1.2 mM MgCl2 and 0.1% Bovine serum albumin (BSA). Nonspecific binding is determined in the presence of 10 μM astemizole. Following incubation, the samples are filtered rapidly under vacuum through glass fiber filters (GF/B, Packard) presoaked with 0.3% PEI and rinsed several times with ice-cold 50 mM Tris-HCl using a 96-sample cell harvester (Unifilter, Packard). The filters are dried then counted for radioactivity in a scintillation counter (Topcount, Packard) using a scintillation cocktail (Microscint 0, Packard). The results are expressed as a percent inhibition of the control radioligand specific binding. The standard reference compound is astemizole, which is tested in each experiment at several concentrations to obtain a competition curve from which its IC50 is calculated. (Finalayson et al, [^3H]dofetilide binding in SHSYSY and HEK293 cells expressing a HERG-like K^+ channels, Eur. J. Pharmacol., 412: 203 (2001)).

In experiment [1] the test system is H1155. The experiment in a line: Combination studies, fixed ratio method, cell proliferation, H1155. It counts as cell-based. The source says: (§1) The combination studies use the fixed ratio method, where the compound of the present invention and the other therapeutic agent are present in fixed ratios of concentrations corresponding to the IC50 equivalents of single agents. The readout for the combination studies is cell proliferation in respective cell lines using Cell Titer Glo reagents. Controls are processed similarly but without the compound of the present invention or the other therapeutic agent. Analysis of the data is done according to the method described in Zhao et. al., Clinical Cancer Research, 10, 7994-8004 (2004) utilizing a web based tool. A combination index is calculated for a range of cell proliferation inhibition activity levels according to the equation below. Combination Index at activity level x=[Concentration of other therapeutic agent in the combination at the activity level x/ICx of the other therapeutic agent]+[Concentration of the compound of the present invention in the combination at the activity level x/ICx of the compound of the present invention] For clarity, Combination index values at 50% inhibition are summarized below.

The subject of a further experiment is NCIH460. The experiment is described as follows: Combination studies, fixed ratio method, cell proliferation, NCIH460. It counts as cell-based.
Text: as §1

The next experiment has as its system OPM-2. The experiment in a line: Cell Proliferation Assay (CellTiter-Glo), OPM-2. The conditions noted are these: Homo sapiens; OPM-2, 72 hr. The class given is cell-based. On the procedure:
(§2) The proliferation assay uses the CellTiter-Glo Luminescent Cell Viability Assay System (commercially available from Promega) to determine the cell number of viable cells in culture based on quantitation of the ATP present, which signals the presence of metabolically active cells.
(§3) The cells are plated in 96-well plate at 2000 cells/well in volume of 50 μL medium (DMEM, 10% FBS, 25 mM HEPES, 1.0 mM Sodium Pyruvate, and 0.1 mM Non Essential Amino Acids) except column 1 with medium only as blank control. The plates are incubated overnight at 37° C. and 5% CO2. On the next day, compound stocks are prepared at 40 mM in DMSO (500×) and serially diluted in DMSO in a 96-well round bottom polypropylene plate. Compounds are assayed at 10 concentrations in duplicate, 4 compounds per plate.
(§4) 4 μL of the serial DMSO dilutions are transferred to a 96 deep-well plate and 1 mL complete culture medium is added to create 2× stock for dosing. 50 μL of each 2× dosing stock is gently transferred to the corresponding well of the cell plate resulting in a 0.2% DMSO concentration and a 100 μL final volume. […] medium are added to the Control columns (Column 12) and background columns (Column 1). Cells are incubated with compound for at 37° C., 5% CO2 for 72 hr. […]

A further experiment relates to PC3. The experiment in a line: Cell Proliferation Assay (CellTiter-Glo), PC3. The class given is cell-based. The conditions noted are these: Homo sapiens, PC-3; PC3, 72 hr. How it is done: as §2, §3, §4
The next experiment has as its system CAKI-1. The experiment in a line: Combination studies, fixed ratio method, cell proliferation, CAKI-1. The class given is cell-based. The conditions noted are these: combination with Rapamycin.
Text: as §1

Experiment [2] concerns A2780. The experiment is described as follows: Combination studies, fixed ratio method, cell proliferation, A2780. It counts as cell-based.
Text: as §1

The subject of the next experiment is H69. The experiment is described as follows: Cell Proliferation Assay (CellTiter-Glo), H69. It counts as cell-based. The conditions noted are these: Homo sapiens, NCI-H69; H69, 72 hr. On the procedure:
as §2, §3, §4

Experiment [3] concerns HCT116. The experiment is described as follows: Cell Proliferation Assay (CellTiter-Glo), HCT116. It counts as cell-based. The conditions noted are these: Homo sapiens, HCT-116; HCT116, 72 hr. On the procedure: as §2, §3, §4
The next experiment deals with Calu6. The experiment in a line: Combination studies, fixed ratio method, cell proliferation, Calu6. It counts as cell-based.
Text: as §1

In another experiment the test system is 786-O. The experiment is described as follows: Cell Proliferation Assay (CellTiter-Glo), 786-O. The class given is cell-based. Particulars: Homo sapiens, 786-0, 72 hr. How it is done: as §2, §3, §4
Experiment [4] has as its system H1155. The experiment in a line: Cell Proliferation Assay (CellTiter-Glo), H1155. It counts as cell-based. Particulars: Homo sapiens, NCI-H1155; H1155, 72 hr. On the procedure:
as §2, §3, §4

For another experiment, the system named is 69AR. The experiment is described as follows: Cell Proliferation Assay (CellTiter-Glo), 69AR. The conditions noted are these: 72 hr. The class given is cell-based. On the procedure: as §2, §3, §4
In a further experiment the test system is BT474. The experiment is described as follows: Cell Proliferation Assay (CellTiter-Glo), BT474. The class given is cell-based. Particulars: Homo sapiens, BT-474; BT474, 72 hr. On the procedure: as §2, §3, §4
For the next experiment, the system named is U87MG. The experiment is described as follows: Cell Proliferation Assay (CellTiter-Glo), U87MG. It counts as cell-based. Particulars: Homo sapiens, U-87 MG, 72 hr. On the procedure:
as §2, §3, §4

Experiment [5] has as its system HCT116. The experiment is described as follows: Combination studies, fixed ratio method, cell proliferation, HCT116. The class given is cell-based.
Text: as §1

In the next experiment the test system is 786-0. The experiment is described as follows: Combination studies, fixed ratio method, cell proliferation, 786-0. It counts as cell-based. The conditions noted are these: combination with Rapamycin.
Text: as §1

Another experiment relates to ACHN. The experiment is described as follows: Combination studies, fixed ratio method, cell proliferation, ACHN. The class given is cell-based. Particulars: combination with Rapamycin.
Text: as §1

The test system of experiment [6] is A2780. The experiment is described as follows: Cell Proliferation Assay (CellTiter-Glo), A2780. It counts as cell-based. Particulars: Homo sapiens; A2780, 72 hr. On the procedure:
as §2, §3, §4

T1 sequence (Q12809 whole entry): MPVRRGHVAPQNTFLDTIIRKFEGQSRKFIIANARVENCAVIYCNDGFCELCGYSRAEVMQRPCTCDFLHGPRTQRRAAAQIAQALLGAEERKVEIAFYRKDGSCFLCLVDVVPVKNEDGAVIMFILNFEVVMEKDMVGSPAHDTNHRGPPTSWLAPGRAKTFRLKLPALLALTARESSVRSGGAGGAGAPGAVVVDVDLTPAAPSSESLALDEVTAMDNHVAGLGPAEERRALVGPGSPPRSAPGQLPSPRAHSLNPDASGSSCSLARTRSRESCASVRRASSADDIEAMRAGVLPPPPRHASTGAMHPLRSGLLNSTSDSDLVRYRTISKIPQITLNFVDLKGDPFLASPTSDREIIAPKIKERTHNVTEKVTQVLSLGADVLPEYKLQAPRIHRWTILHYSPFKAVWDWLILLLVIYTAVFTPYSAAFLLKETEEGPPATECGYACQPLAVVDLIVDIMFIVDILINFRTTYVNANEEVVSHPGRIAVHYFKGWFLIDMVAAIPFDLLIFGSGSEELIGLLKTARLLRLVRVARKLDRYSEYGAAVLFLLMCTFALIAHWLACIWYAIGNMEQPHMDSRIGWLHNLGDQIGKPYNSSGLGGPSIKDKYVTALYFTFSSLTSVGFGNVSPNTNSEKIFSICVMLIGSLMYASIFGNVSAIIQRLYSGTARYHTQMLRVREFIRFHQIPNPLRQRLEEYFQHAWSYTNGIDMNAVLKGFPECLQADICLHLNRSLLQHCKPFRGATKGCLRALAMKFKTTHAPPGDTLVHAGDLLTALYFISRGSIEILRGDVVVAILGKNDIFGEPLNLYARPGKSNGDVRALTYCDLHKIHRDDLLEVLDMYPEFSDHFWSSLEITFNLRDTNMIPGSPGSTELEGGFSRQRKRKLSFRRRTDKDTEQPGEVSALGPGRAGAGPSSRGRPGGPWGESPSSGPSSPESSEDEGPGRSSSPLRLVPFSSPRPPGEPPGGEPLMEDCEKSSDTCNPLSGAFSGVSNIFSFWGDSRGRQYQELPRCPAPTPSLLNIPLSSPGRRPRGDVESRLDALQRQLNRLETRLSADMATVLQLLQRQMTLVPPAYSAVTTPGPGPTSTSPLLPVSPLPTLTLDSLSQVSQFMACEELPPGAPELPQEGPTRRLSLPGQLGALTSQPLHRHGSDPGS

Compound `O=C1Cc2c(ncnc2N2CCC(c3nc(-c4ccc(F)c(F)c4)cn3CCN3CCCC3)CC2)N1` [Example 37, 4-{4-[4-(3,4-Difluoro-phenyl)-1-(2-pyrrolidin-1-yl-ethyl)-1H-imidazol-2-yl]-piperidin-1-yl}-5,7-dihydro-pyrrolo[2,3-d]pyrimidin-6-one] yielded an IC50 at human HERG K+ channel of 13.9 µM.
For `CN(C)CCn1cc(-c2ccc(F)c(C(F)(F)F)c2)nc1C1CCN(c2ncnc3c2CC(=O)N3)CC1` [Example 45, 4-{4-[1-(2-Dimethylamino-ethyl)-4-(4-fluoro-3-trifluoromethyl-phenyl)-1H-imidazol-2-yl]piperidin-1-yl}-5,7-dihydro-pyrrolo[2,3-d]-pyrimidin-6-one], the “COMBINATION INDEX AT 50% INHIBITION” value in the experiment with H1155 [1] (combination with Cisplatin) came out at 0.58; in the experiment with H1155 [1] (combination with Erlotinib), 0.43; with H1155 [1] (combination with Gemcitabine) it was 0.87; in the experiment with NCIH460 (combination with Cisplatin), 0.56; in the experiment on NCIH460 (combination with Docetaxel), 0.67; in the experiment on NCIH460 (combination with Erlotinib), 0.38. In addition, the “COMBINATION INDEX AT 50% INHIBITION” value in the experiment with NCIH460 (combination with Gemcitabine) is 0.86; in the experiment with NCIH460 (combination with Pemetrexed) it was 0.97; in the experiment on CAKI-1 it was 0.33; in the experiment with A2780 [2] (combination with Cisplatin) it was 1.04 and 0.64; in the experiment on A2780 [2] (combination with Doxorubicin•HCl) it was 0.65 and 0.96; in the experiment with Calu6 (combination with Cisplatin), 0.57. The “COMBINATION INDEX AT 50% INHIBITION” value was 0.94 in the experiment on Calu6 (combination with Docetaxel); 0.10 in the experiment on Calu6 (combination with Erlotinib); 1.13 with Calu6 (combination with Gemcitabine); 1.19 in the experiment with Calu6 (combination with Tasisulam); 2.02 in the experiment with HCT116 [5] (combination with Cetuximab); 0.82 in the experiment on HCT116 [5] (combination with Irinotecan). For the same compound, the “COMBINATION INDEX AT 50% INHIBITION” value in the experiment with 786-0 was 0.41; in the experiment on ACHN, 0.12. The IC50 in the experiment on OPM-2 worked out at 2.3 µM; in the experiment on PC3, 6.2 µM; with H69 it was 6.3 µM; in the experiment with HCT116 [3] it was 7.5 µM; with 786-O, 3.4 µM; in the experiment with H1155 [4] it was 4.9 µM. For the same compound, the IC50 was 9.4 µM in the experiment with 69AR, 7.9 µM with BT474, greater than 10 µM in the experiment with U87MG and 5.9 µM with A2780 [6].
